Source: US20210138025A1, “CATIONIC PEPTIDES WITH IMMUNOMODULATORY AND/OR ANTI-BIOFILM ACTIVITIES” (priority 2018, published 2021)

Assays:
S. aureus (MRSA SAP0017) = assay type: cell-based, Staphylococcus aureus; conditions: SPOT synthesized control peptides, determined as in Table 5; Table 7
Outline: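 Static biofilm assay: 1/100 dilutions of overnight cultures grown with peptide at varying concentrations, added at time zero, in BM2 biofilm medium or tryptic soy broth plus 1% glucose in polypropylene plates. After 22-46 h, adherent biofilm stained with crystal violet and absorbance read at 595 nm.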

MCP-1 = MCP-1 chemokine induction in human PBMCs, ELISA (Tables 6, 7; FIGS. 6-9, 13); assay type: cell-based; conditions: SPOT synthesized control peptides, determined as in Table 6; Table 7
Experimental: Venous blood (20 ml) from healthy volunteers was collected in Vacutainer® collection tubes containing sodium heparin as an anticoagulant (Becton Dickinson, Mississauga, ON) in accordance with UBC ethical approval and guidelines. Blood was diluted 1:1 with complete RPMI 1640 medium and separated by centrifugation over a Ficoll-Paque® Plus (Amersham Biosciences, Piscataway, N.J., USA) density gradient. White blood cells were isolated from the buffy coat, washed twice in PBS and then resuspended in RPMI 1640 complete medium (containing 10% fetal bovine serum), and the number of peripheral blood mononuclear cells (PBMC) was determined by Trypan blue exclusion. PBMCs (5×10^5) were seeded into 12-well tissue culture dishes (Falcon; Becton Dickinson) at 0.75-1×10^6 cells/ml at 37° C. in 5% CO2. The above conditions were chosen to mimic conditions for circulating blood monocytes entering tissues at the site of infection via extravasation.
Following incubation of the cells under various treatment regimens, the tissue culture supernatants were centrifuged at 1000×g for 5 min, then at 10,000×g for 2 min to obtain cell-free samples. Supernatants were aliquoted and then stored at −20° C. prior to assay for various chemokines by capture ELISA (eBioscience and BioSource International Inc., CA, USA respectively)

IL-1β = assay: Suppression of LPS-induced IL-1β production in human PBMCs, ELISA (Tables 6, 7; FIGS. 6-9, 13); conditions: SPOT synthesized control peptides, determined as in Table 6; Table 7

C31 (RAIIKQRWQRRW) [Peptide C31]
% Biofilm Inhibition (S. aureus (MRSA SAP0017)): 103%
MCPI production in PBMC (MCP-1): 1649 pg/mL
Fold Change in IL1-β relative to untreated LPS-stimulated cells (IL-1β): 1.09

C32 (QRWKKWKVLKLR) [Peptide C32]
% Biofilm Inhibition (S. aureus (MRSA SAP0017)): 102%
MCPI production in PBMC (MCP-1): 1614 pg/mL
Fold Change in IL1-β relative to untreated LPS-stimulated cells (IL-1β): 1.11

C33 (KIWLLKLRQRQK) [Peptide C33]
% Biofilm Inhibition (S. aureus (MRSA SAP0017)): 102%
MCPI production in PBMC (MCP-1): 1685 pg/mL
Fold Change in IL1-β relative to untreated LPS-stimulated cells (IL-1β): 1.23

C34 (WRIKKQWIQIIV) [Peptide C34]
% Biofilm Inhibition (S. aureus (MRSA SAP0017)): 99%
MCPI production in PBMC (MCP-1): 217 pg/mL
Fold Change in IL1-β relative to untreated LPS-stimulated cells (IL-1β): 1.13

C35 (IILKRVQVQKIK) [Peptide C35]
% Biofilm Inhibition (S. aureus (MRSA SAP0017)): 101%
MCPI production in PBMC (MCP-1): 481 pg/mL
Fold Change in IL1-β relative to untreated LPS-stimulated cells (IL-1β): 1.1

C36 (KRIKKLLKVVLK) [Peptide C36]
% Biofilm Inhibition (S. aureus (MRSA SAP0017)): 100%
MCPI production in PBMC (MCP-1): 719 pg/mL
Fold Change in IL1-β relative to untreated LPS-stimulated cells (IL-1β): 0.92

C37 (QQKVIRLLWKAK) [Peptide C37]
% Biofilm Inhibition (S. aureus (MRSA SAP0017)): 102%
MCPI production in PBMC (MCP-1): 216 pg/mL
Fold Change in IL1-β relative to untreated LPS-stimulated cells (IL-1β): 0.83

C38 (RIWRRAWKARWK) [Peptide C38]
% Biofilm Inhibition (S. aureus (MRSA SAP0017)): 102%
MCPI production in PBMC (MCP-1): 251 pg/mL
Fold Change in IL1-β relative to untreated LPS-stimulated cells (IL-1β): 1.06

C39 (KIKLIQKQLRIK) [Peptide C39]
% Biofilm Inhibition (S. aureus (MRSA SAP0017)): 98%
MCPI production in PBMC (MCP-1): 286 pg/mL
Fold Change in IL1-β relative to untreated LPS-stimulated cells (IL-1β): 0.84

C40 (ALLAGRKRAVAV) [Peptide C40]
% Biofilm Inhibition (S. aureus (MRSA SAP0017)): 102%
MCPI production in PBMC (MCP-1): 39 pg/mL
Fold Change in IL1-β relative to untreated LPS-stimulated cells (IL-1β): 0.89

C41 (KAVAGARQRWAL) [Peptide C41]
% Biofilm Inhibition (S. aureus (MRSA SAP0017)): 101%
MCPI production in PBMC (MCP-1): 353 pg/mL
Fold Change in IL1-β relative to untreated LPS-stimulated cells (IL-1β): 0.82

C42 (AIGAARAWRQWA) [Peptide C42]
% Biofilm Inhibition (S. aureus (MRSA SAP0017)): 102%
MCPI production in PBMC (MCP-1): 114 pg/mL
Fold Change in IL1-β relative to untreated LPS-stimulated cells (IL-1β): 0.85

C43 (AVIVRAAKGGAR) [Peptide C43]
% Biofilm Inhibition (S. aureus (MRSA SAP0017)): 103%
MCPI production in PBMC (MCP-1): 100 pg/mL
Fold Change in IL1-β relative to untreated LPS-stimulated cells (IL-1β): 0.99

C44 (LLKLKQKGIVIA) [Peptide C44]
% Biofilm Inhibition (S. aureus (MRSA SAP0017)): 102%
MCPI production in PBMC (MCP-1): 365 pg/mL
Fold Change in IL1-β relative to untreated LPS-stimulated cells (IL-1β): 0.94

C45 (QWLVKWVIIKVV) [Peptide C45]
% Biofilm Inhibition (S. aureus (MRSA SAP0017)): 102%
MCPI production in PBMC (MCP-1): 499 pg/mL
Fold Change in IL1-β relative to untreated LPS-stimulated cells (IL-1β): 1

C46 (IQIWIIRVIWRW) [Peptide C46]
% Biofilm Inhibition (S. aureus (MRSA SAP0017)): 102%
MCPI production in PBMC (MCP-1): 697 pg/mL
Fold Change in IL1-β relative to untreated LPS-stimulated cells (IL-1β): 0.91

C47 (KVIQWIIVRRVL) [Peptide C47]
% Biofilm Inhibition (S. aureus (MRSA SAP0017)): 102%
MCPI production in PBMC (MCP-1): 1193 pg/mL
Fold Change in IL1-β relative to untreated LPS-stimulated cells (IL-1β): 0.76

C48 (KVIKIVLVRVVK) [Peptide C48]
% Biofilm Inhibition (S. aureus (MRSA SAP0017)): 99%
MCPI production in PBMC (MCP-1): 1752 pg/mL
Fold Change in IL1-β relative to untreated LPS-stimulated cells (IL-1β): 1.07

C49 (WLKRIVKVVVLK) [Peptide C49]
% Biofilm Inhibition (S. aureus (MRSA SAP0017)): 103%
MCPI production in PBMC (MCP-1): 1557 pg/mL
Fold Change in IL1-β relative to untreated LPS-stimulated cells (IL-1β): 0.8

C50 (IKIVRRAKIIIW) [Peptide C50]
% Biofilm Inhibition (S. aureus (MRSA SAP0017)): 94%
MCPI production in PBMC (MCP-1): 222 pg/mL
Fold Change in IL1-β relative to untreated LPS-stimulated cells (IL-1β): 0.91

C51 (VKWKGKVIVVQL) [Peptide C51]
% Biofilm Inhibition (S. aureus (MRSA SAP0017)): 79%
MCPI production in PBMC (MCP-1): 862 pg/mL
Fold Change in IL1-β relative to untreated LPS-stimulated cells (IL-1β): 0.81

C52 (KIVQKKLRLVVI) [Peptide C52]
% Biofilm Inhibition (S. aureus (MRSA SAP0017)): 99%
MCPI production in PBMC (MCP-1): 291 pg/mL
Fold Change in IL1-β relative to untreated LPS-stimulated cells (IL-1β): 0.76

C53 (GKLKIKVKLGIA) [Peptide C53]
% Biofilm Inhibition (S. aureus (MRSA SAP0017)): 98%
MCPI production in PBMC (MCP-1): 113 pg/mL
Fold Change in IL1-β relative to untreated LPS-stimulated cells (IL-1β): 0.94
